Reference: US20100063092A1, “3-CYANO-4-(4-PHENYL-PIPERIDIN-1-YL)-PYRIDIN-2-ONE DERIVATIVES” (Ortho-Mcneil-Janssen Pharmaceuticals, Inc., priority 2007, published 2010)
Where two headings read alike, the source gives them in different places.

Assays:
human mGluR2 = target: T1, human mGluR2 (Homo sapiens, UniProt Q14416); assay: [35S]GTPγS binding assay (PAM assay); assay type: biochemical
T1 construct: expressed in transfected cells; host or cells: CHO cells (membranes)
Excerpt: The compounds provided in the present invention are positive allosteric modulators of mGluR2. These compounds appear to potentiate glutamate responses by binding to an allosteric site other than the glutamate binding site. The response of mGluR2 to a concentration of glutamate is increased when compounds of formula (I) are present. Compounds of formula (I) are expected to have their effect substantially at mGluR2 by virtue of their ability to enhance the function of the receptor. The behaviour of positive allosteric modulators tested at mGluR2 using the [^35S]GTPγS binding assay method described below and which is suitable for the identification of such compounds, and more particularly the compounds according to formula (I), are shown in Table 3.
The [^35S]GTPγS binding assay is a functional membrane-based assay used to study G-protein coupled receptor (GPCR) function whereby incorporation of a non-hydrolysable form of GTP, [^35S]GTPγS (guanosine 5′-triphosphate, labelled with […] ^35S), is measured. The G-protein […] catalyzes the exchange of guanosine 5′-diphosphate (GDP) by guanosine triphosphate (GTP) and on activation of the GPCR by an agonist, [^35S]GTPγS, becomes incorporated and cannot be cleaved to continue the exchange cycle (Harper (1998) Current Protocols in Pharmacology 2.6.1-10, John Wiley & Sons, Inc.). […] Here we describe the use of the [^35S]GTPγS binding assay using membranes from cells transfected with the human mGluR2 receptor and adapted from Schaffhauser et al ((2003) Molecular Pharmacology 4:798-810) for the detection of the positive allosteric modulation (PAM) properties of the compounds of this invention.
CHO-cells were cultured to pre-confluence and stimulated with 5 mM butyrate for 24 hours, prior to washing in PBS, and then collection by scraping in homogenisation buffer (50 mM Tris-HCl buffer, pH 7.4, 4° C.). Cell lysates were homogenized briefly (15s) using an ultra-turrax homogenizer. The homogenate was centrifuged at 23 500×g for 10 minutes and the supernatant discarded. The pellet was resuspended in 5 mM Tris-HCl, pH 7.4 and centrifuged again (30 000×g, 20 min, 4° C.). The final pellet was resuspended in 50 mM HEPES, pH 7.4 and stored at −80° C. in appropriate aliquots before use. Protein concentration was determined by the Bradford method (Bio-Rad, USA) with bovine serum albumin as standard.
Measurement of mGluR2 positive allosteric modulatory activity of test compounds in membranes containing human mGluR2 was performed using frozen membranes that were thawed and briefly homogenised prior to pre-incubation in 96-well microplates (15 μg/assay well, 30 minutes, 30° C.) in assay buffer (50 mM HEPES pH 7.4, 100 mM NaCl, 3 mM MgCl2, 50 μM GDP, 10 μg/ml saponin,) with increasing concentrations of positive allosteric modulator (from 0.3 nM to 50 μM) and either a minimal pre-determined concentration of glutamate (PAM assay), or no added glutamate. For the PAM assay, membranes were pre-incubated with glutamate at EC25 concentration, i.e. a concentration that gives 25% of the maximal response glutamate, and is in accordance to published data (Pin et al. (1999) Eur. J. Pharmacol. 375:277-294). After addition of [^35S]GTPγS (0.1 nM, f.c.) to achieve a total reaction volume of 200 μl, microplates were shaken briefly and further incubated to allow [^35S]GTPγS incorporation on activation (30 minutes, 30° C.). The reaction was stopped by rapid vacuum filtration over glass-fibre filter plates (Unifilter 96-well GF/B filter plates, Perkin-Elmer, Downers Grove, USA) microplate using a 96-well plate cell harvester (Filtermate, Perkin-Elmer, USA), and then by washing three times with 300 μl of ice-cold wash buffer (Na2PO4.2H20 10 mM, NaH2PO4.H20 10 mM, pH=7.4). Filters were then air-dried, and 40 μl of liquid scintillation cocktail (Microscint-O) was added to each well, and membrane-bound [^35S]GTPγS was measured in a 96-well scintillation plate reader (Top-Count, Perkin-Elmer, USA). […]

[1] = compounds of formula (I'), protocol of section D ([35S]GTPγS, human mGluR2, glutamate EC25), read-out: pEC50 (see section D for protocol) (converted)
[2] = membranes from CHO cells transfected with human mGluR2, in presence of glutamate at predetermined EC25 concentration, averages of duplicate values of 11-concentration response curves, read-out: GTPgS - hR2 PAM pEC50 (converted)

T1 sequence (Q14416 19-872): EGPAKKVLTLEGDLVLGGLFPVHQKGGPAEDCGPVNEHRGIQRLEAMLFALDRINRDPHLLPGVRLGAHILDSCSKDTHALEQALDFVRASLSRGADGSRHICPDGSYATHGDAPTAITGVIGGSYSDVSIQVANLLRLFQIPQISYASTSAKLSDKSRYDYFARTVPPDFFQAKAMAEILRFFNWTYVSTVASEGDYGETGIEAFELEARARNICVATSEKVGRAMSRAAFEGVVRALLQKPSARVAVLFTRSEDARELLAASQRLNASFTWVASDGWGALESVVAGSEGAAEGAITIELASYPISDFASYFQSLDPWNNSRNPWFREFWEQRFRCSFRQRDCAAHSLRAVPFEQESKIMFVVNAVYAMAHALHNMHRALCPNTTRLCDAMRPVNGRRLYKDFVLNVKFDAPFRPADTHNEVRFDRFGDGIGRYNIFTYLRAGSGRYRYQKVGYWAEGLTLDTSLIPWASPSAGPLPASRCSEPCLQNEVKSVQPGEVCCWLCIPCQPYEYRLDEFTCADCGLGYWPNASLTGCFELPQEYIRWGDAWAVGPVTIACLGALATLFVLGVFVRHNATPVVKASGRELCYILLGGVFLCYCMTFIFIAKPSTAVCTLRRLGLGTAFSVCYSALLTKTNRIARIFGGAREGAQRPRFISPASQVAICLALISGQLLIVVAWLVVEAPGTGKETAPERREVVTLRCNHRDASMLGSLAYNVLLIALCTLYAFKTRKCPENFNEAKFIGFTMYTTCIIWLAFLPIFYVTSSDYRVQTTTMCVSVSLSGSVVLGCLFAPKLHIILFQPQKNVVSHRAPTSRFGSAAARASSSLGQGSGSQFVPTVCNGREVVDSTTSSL

EC50 (human mGluR2; [1]) [nM] | EC50 (human mGluR2; [2]) [nM] | melting point [°C] | Structure (SMILES)
200 |  |  | CCCCn1ccc(N2CCC(O)(c3cccc(Cl)c3)CC2)c(C#N)c1=O
 | 174 |  | CCCCn1ccc(N2CCC(F)(c3ccccc3)CC2)c(C#N)c1=O [Compound 2, 1′-Butyl-4-fluoro-2′-oxo-4-phenyl-3,4,5,6,1′,2′-hexahydro-2H-[1,4′]bipyridinyl-3′-carbonitrile]
1000 |  |  | N#Cc1c(N2CCC(O)(c3ccccc3)CC2)ccn(CC2CC2)c1=O
 | 316 | 128 | N#Cc1c(N2CCC(c3ccccc3)CC2)ccn(CC2CC2)c1=O [Compound 8, 3-cyano-1-cyclopropylmethyl-4-(4-phenyl-piperidin-1-yl)-pyridine-2(1H)-one]
100 |  |  | CCCCn1ccc(N2CCC(O)(c3ccc(Cl)cc3)CC2)c(C#N)c1=O
 | 263 | 189.2 | N#Cc1c(N2CCC(F)(c3ccccc3)CC2)ccn(CC2CC2)c1=O [Compound 1, 1′-Cyclopropylmethyl-4-fluoro-2′-oxo-4-phenyl-3,4,5,6,1′,2′-hexahydro-2H-[1,4′]bipyridinyl-3′-carbonitrile]
501 |  |  | N#Cc1c(N2CCC(O)(c3ccc(F)cc3)CC2)ccn(CC2CC2)c1=O
398 |  |  | CCCCn1ccc(N2CCC(O)(c3ccc(F)cc3)CC2)c(C#N)c1=O
 | 186 |  | CCCCn1ccc(N2CCC(OCCF)(c3ccccc3)CC2)c(C#N)c1=O [Compound 7, 1′-Butyl-4-fluoroethyloxy-2′-oxo-4-phenyl-3,4,5,6,1′,2′-hexahydro-2H-[1,4′]bipyridinyl-3′-carbonitrile]
 | 447 |  | CCCCn1ccc(N2CCC(CF)(c3ccccc3)CC2)c(C#N)c1=O [Compound 6, 1′-Butyl-4-fluoromethyl-2′-oxo-4-phenyl-3,4,5,6,1′,2′-hexahydro-2H-[1,4′]bipyridinyl-3′-carbonitrile]
 | 1200 |  | N#Cc1c(N2CCC(CF)(c3ccccc3)CC2)ccn(CC2CC2)c1=O [Compound 5, 1′-Cyclopropylmethyl-4-fluoromethyl-2′-oxo-4-phenyl-3,4,5,6,1′,2′-hexahydro-2H-[1,4′]bipyridinyl-3′-carbonitrile]
 | 2040 | 103.2 | CCCCn1ccc(N2CCC(CO)(c3ccccc3)CC2)c(C#N)c1=O [Compound 4, 1′-Butyl-4-hydroxymethyl-2′-oxo-4-phenyl-3,4,5,6,1′,2′-hexahydro-2H-[1,4′]bipyridinyl-3′-carbonitrile]
